Laboratory results published in ChEMBL document CHEMBL6134906, “Design, Synthesis, and Biological Evaluation of Selective STING Synergists That Enhance cGAMP-STING Pathway Activation without Inherent Agonist Activity” (J Med Chem, 2025).

What was measured:
[1] = biological target: Stimulator of interferon genes protein (Homo sapiens, UniProt Q86WV6)
THP-1 = assay: Cytotoxicity against human THP-1 cells assessed as cell viability at 100 uM incubated for 48 hrs by CellTiter Glo luminescent cell viability assay relative to control; conditions: THP-1, 48 h, read-out: Activity

Stimulator of interferon genes protein, sequence (Q86WV6 whole entry): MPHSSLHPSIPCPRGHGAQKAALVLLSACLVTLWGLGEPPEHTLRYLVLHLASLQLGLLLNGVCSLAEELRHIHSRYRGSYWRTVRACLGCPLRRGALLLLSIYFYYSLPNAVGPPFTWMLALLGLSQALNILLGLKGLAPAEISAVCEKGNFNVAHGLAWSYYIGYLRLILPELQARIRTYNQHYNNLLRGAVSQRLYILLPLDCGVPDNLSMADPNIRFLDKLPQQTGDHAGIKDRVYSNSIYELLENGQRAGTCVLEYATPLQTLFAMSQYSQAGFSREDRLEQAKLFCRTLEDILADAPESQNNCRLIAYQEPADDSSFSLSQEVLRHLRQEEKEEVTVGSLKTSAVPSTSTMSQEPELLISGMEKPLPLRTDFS

Structure (SMILES)	IC50 [1] [µM]	viability at 100 µM (THP-1) [%]
Cc1ccc2c(=O)c3cccc(CC(=O)O)c3[nH]c2c1C	> 100	93.4
COc1ccc2[nH]c3c(C)c(C)ccc3c(=O)c2c1	13.7	98.8
COc1cc2c(=O)c3cccc(CC(=O)O)c3[nH]c2c(C)c1C	28	91.4
Cc1ccc2c(=O)c3cc(F)cc(CC(=O)O)c3[nH]c2c1C	> 100	99
COc1cc(CC(=O)O)c2[nH]c3c(C)c(C)c(OC)cc3c(=O)c2c1	11.4	86.7
Cc1ccc2c(=O)c3c(Cl)ccc(CC(=O)O)c3[nH]c2c1C	> 100	87.7
Cc1ccc2c(=O)c3c(F)ccc(CC(=O)O)c3[nH]c2c1C	> 100	103
COc1ccc2c(c1)c(=O)c1ccc(C)c(C)c1n2CC(=O)O	> 100	95.8
COc1cc2c(=O)c3cc(C)ccc3n(CC(=O)O)c2c(C)c1C	25.1	105
COc1cc2c(=O)c3c(Cl)ccc(CC(=O)O)c3[nH]c2c(C)c1C		95.4
COc1ccc2c(c1)c(=O)c1cc(OC)c(C)c(C)c1n2CC(=O)OCC(C)(C)C	33.8	93.3
COc1cc2c(=O)c3cc(F)cc(CC(=O)O)c3[nH]c2c(C)c1C		106
COc1cc2c(=O)c3cc(C)cc(C(=O)O)c3[nH]c2c(C)c1C	5.95	98.4
CCOC(=O)Cn1c2ccc(OC)cc2c(=O)c2ccc(C)c(C)c21	> 100	99.2
COc1cc2c(=O)c3ccccc3n(CC(=O)O)c2c(C)c1C	8.26	86.9
COc1cc2c(=O)c3c(F)ccc(CC(=O)O)c3[nH]c2c(C)c1C		87.8
CCOC(=O)Cn1c2ccc(OC)cc2c(=O)c2cc(OC)c(C)c(C)c21	26	102
COc1cc(C(=O)O)c2[nH]c3c(C)c(C)c(OC)cc3c(=O)c2c1		96.5
COc1ccc2c(c1)c(=O)c1cc(OC)c(C)c(C)c1n2CC(=O)O	11.1	83.3
CCOC(=O)Cn1c2ccccc2c(=O)c2cc(OC)c(C)c(C)c21		93.5
COc1cc2c(=O)c3cc(Cl)cc(CC(=O)O)c3[nH]c2c(C)c1C		82
COC(=O)Cn1c2ccc(C)cc2c(=O)c2cc(OC)c(C)c(C)c21	41.5	85.7
COc1cc2c(=O)c3cccc(C(=O)O)c3[nH]c2c(C)c1C		92.1
COc1cc(C(=O)O)c2[nH]c3c(C)c(C)ccc3c(=O)c2c1	> 100	91.3
Cc1ccc2c(=O)c3cc(Cl)cc(CC(=O)O)c3[nH]c2c1C	> 100	83.4
